This is an account of results in paper PMC8880313, “Discovery of Novel Andrographolide Derivatives as Antiviral Inhibitors against Human Enterovirus A71” (Pharmaceuticals, 2022).

One data set relates to EV-A71. The experiment in a line: Pre-treatment assay. In kind it is cell-based, human enterovirus A71 (EV-A71) strain 41. To be noted: pre-treatment 2 h, highest concentration, 12 hpi. As for the experimental part: To confirm this finding, assays to investigate the effect of ZAF-47 on EV-A71 entry into cells were performed. With pre-treatment assay, we first treated the cells with different concentrations of ZAF-47 before subjecting them to EV-A71 infection. The aim was to investigate if ZAF-47 was able to bind to host surface receptors which would prevent the virions from binding and thus blocking viral entry. […] Even at the highest concentration, the reduction in viral titre (0.8 log10 PFU/mL decrease) was not as pronounced as post-treatment and could likely be due to drug toxicity. Thus, it is unlikely that ZAF-47 inhibits EV-A71 infection by binding with host receptors to block viral entry. With co-treatment assay, we first treated EV-A71 virions with ZAF-47 for 30 min before infecting the cells. The aim was to investigate if ZAF-47 was able to bind to viral surface proteins which would prevent the virions from binding to the host receptors and thus blocking viral entry. […] Thus, it is unlikely that ZAF-47 blocks EV-A71 entry into host cells by binding to viral surface proteins. Instead, using entry bypass assay, we were able to deduce that ZAF-47 most likely targets EV-A71 post-entry stages. […]
Seeded 24-well plates, with 1.5 × 10^5 RD cells per well, were incubated overnight at 37 °C with 5% CO2. […] The plates were frozen down at 12 hpi for viral titre quantification using viral plaque assay.

The test system of another data set is EV-A71 IRES. Briefly: Bicistronic luciferase reporter assay. Format: cell-based, human enterovirus A71 (EV-A71) strain 41. To be noted: RD cells, various concentrations, 12 h. As for the experimental part: To validate this finding, we also transfected RD cells with a bicistronic reporter construct which had been established and validated previously. Similarly, the transfected cells were treated with ZAF-47 at various concentrations and then incubated for 12 h before luminescence detection. The construct comprises a human cytomegalovirus (CMV) promoter with a downstream Renilla luciferase (R Luc) gene and an EV-A71 strain 41 IRES with a downstream firefly luciferase (F Luc) gene (Figure 4f). This means that R Luc can be expressed by the CMV promoter via cap-dependent translation while F Luc can be expressed by the EV-A71 IRES via cap-independent translation. An accurate determination of IRES activity would be to use the ratio of F Luc luminescence reading to R Luc luminescence reading (F Luc/R Luc). The transfected cells were also treated with negative control, DMSO and positive control, apigenin, an EV-A71 IRES inhibitor [53].
Seeded 96-well white plates (Corning), with 2 × 10^4 RD cells per well, were incubated overnight at 37 °C with 5% CO2. After which, a bicstronic luciferase reporter construct was used to transfect the cells, as described in our previous work, for 12 h at 37 °C with 5% CO2. […]
A general note: Reporter assays use an easily measured gene product as a stand-in for the process of interest.

A short description of data set [1]: Cell viability assay (alamarBlue). Particulars: human, RD cells. In kind it is cell-based, human. The method, then:
(§1) Firstly, we performed cell viability assay to evaluate the cytotoxicity profile of the 19 hits. Cells seeded overnight were treated with the hit compounds at 10 µM. […] Anti-EV-A71 activity of AGP-253 had been illustrated and discussed previously. We were particularly interested in ZAF-46 and ZAF-47 as they belonged to the same series bearing novel 14-quinolinoxy and 17-hydro-8,9-olefin modifications (Figure 2b) that could potentially open up new targets for EV-A71 therapeutics. Additional cell viability assays were performed for ZAF-46 and ZAF-47 at different concentrations to identify the low cytotoxic concentrations for downstream post-treatment assays. For post-treatment assays, cells seeded overnight were infected with EV-A71 and subsequently treated with ZAF-46 and ZAF-47 at different concentrations. […] Treatment with ZAF-46 led to 1.4 log reduction at 10 µM and 2.4 log reduction at 20 µM (Figure 2c) while treatment with ZAF-47 led to 0.8 log reduction at 5 µM, 1.1 log reduction at 10 µM and 2.1 log reduction at 20 µM (Figure 2d). CC50 and IC50 for both compounds were determined and used to derive their SI (Table 2). ZAF-47 was selected for further downstream analysis due to its higher SI value which indicate higher pharmacological value for clinical use.
(§2) To determine the cytotoxicity profiles of the hits, cell viability assay was performed. Seeded 96-well plates, with 2 × 10^4 RD cells per well, were incubated overnight at 37 °C with 5% CO2. Different concentrations of drug hits, diluted by reduced serum DMEM, were used to treat the seeded cells for 12 h at 37 °C with 5% CO2. Reduced serum DMEM, was employed as the negative control and 0.1% DMSO as the vehicle control for this step. Subsequently, the supernatant was replaced with alamarBlue^TM Cell Viability Reagent (Thermo Fisher Scientific, Waltham, MA, USA) (100 µL), diluted 10-fold in reduced serum DMEM, and incubated for 3 h at 37 °C with 5% CO2. Fluorescence intensity in each well was measured at 570 nm excitation wavelength and 600 nm emission wavelength in each well by the Infinite^TM 200 series microplate reader (Tecan, Männedorf, Switzerland) and normaliszd with the negative control to determine the relative cell viability.
For orientation: The colour change of resazurin is a common sign of viable cells or microbes.

The test system of a further data set is RD cells. The experiment in a line: Cell viability assay (alamarBlue). Format: cell-based, human. Particulars: 10 µM, 12 h. As for the experimental part: as §1, §2

As for `CC(=O)OC[C@]1(C)C(=O)CC[C@@]2(C)C(C/C=C3/C(=O)OC[C@@H]3Oc3cccc4cccnc34)=C(C)CC[C@@H]21` [ZAF-47, (14β)-(8′-Quinolinoxy)-3-ketone-9-dehydro-17-hydro-19-acetoxy–andrographolide], the “reduction in viral titre” value in the data set with EV-A71 is listed as 0.8 log10 PFU/mL. Moreover, the “IRES activity (F Luc/R Luc)” value with EV-A71 IRES is reported as “did not reduce IRES activity”. In addition, the CC50 (in general, the concentration at which the toxic effect on the cells reaches its halfway point) at 12 h in data set [1] is 29.6 µM. For the same compound, the cytotoxicity entry with RD cells was “low cytotoxicity”.
